Patent US9499550B2 (BRISTOL-MYERS SQUIBB COMPANY, priority 2012, dated 2016)
Like-named read-outs stand apart in the source and are kept apart here.

Assays:
[1] = tested on: HCV genotype 1b (Con1) replicon in HUH-7 cells; experiment: HCV replicon luciferase reporter assay, genotype 1b; type: cell-based; conditions: Hepatitis C virus, Huh-7, 72 h, 3 days incubation
Outline: (§1)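 Replicon inhibition for both genotypes was measured as Renilla luciferase signal (EnduRen, 7.5 μM final, 2 h) after 3-day, 37° C exposure of replicon-bearing HUH-7 cells in 4% FCS DMEM, 0.5% DMSO. The 1b construct carries S1179I; the 1a H77 construct carries P1496L and S2204I. Twenty-point, 3-fold dilutions were fitted four-parametrically for EC50, and CC50 was taken from multiplexed Cell Titer-Blue.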

[2] = tested on: HCV genotype 1a (H77 strain) replicon in HUH-7 cells; experiment: HCV replicon luciferase reporter assay, genotype 1a; type: cell-based; conditions: Hepatitis C virus, Huh-7, 72 h, 3 days incubation
Outline: as §1

[3] = HCV genotype 1b replicon luciferase, read-out: LE_1b (EC50)
[4] = HCV genotype 1b replicon luciferase, read-out: LE_1b (EC50, range)
[5] = HCV genotype 1a replicon luciferase, read-out: LE_1a (EC50)
[6] = HCV genotype 1a replicon luciferase, read-out: LE_1a (EC50, range)
[7] = GETYPE1B, HCV genotype 1b replicon luciferase, read-out: LE_1b (EC50, range)
[8] = GETYPE1A, HCV genotype 1a replicon luciferase, read-out: LE_1a (EC50, range)
[9] = HCV genotype 1b replicon luciferase assay, range class, read-out: LE_1b (EC50, range)
[10] = HCV genotype 1a replicon luciferase assay, range class, read-out: LE_1a (EC50, range)

COc1nnc(O[C@@H]2C[C@H]3C(=O)N[C@]4(C(=O)NS(=O)(=O)C5CC5)C[C@H]4/C=C\CC[C@H](C)C[C@@H](C)[C@H](NC(=O)OC(C)(C)C)C(=O)N3C2)c2ccccc12 [Compound 5003, tert-butyl ((2R,6S,7R,9S,13aS,14aR,16aS,Z)-14a-((cyclopropylsulfonyl)carbamoyl)-2-((4-methoxyphthalazin-1-yl)oxy)-7,9-dimethyl-5,16-dioxo-1,2,3,5,6,7,8,9,10,11,13a,14,14a,15,16,16a-hexadecahydrocyclopropa[e]pyrrolo[1,2-a][1,4]diazacyclopentadecin-6-yl)carbamate]
EC50 [1, 3]: 1.96 nM
EC50 [1, 4]: < 5.46 nM
EC50 [2, 5]: 5.46 nM
EC50 [2, 6]: 4.82 to 103 nM

CCOc1cc2ccnc(O[C@@H]3C[C@H]4C(=O)N[C@]5(C(=O)NS(=O)(=O)C6(C)CC6)C[C@H]5/C=C\CC[C@@H](C)C[C@@H](C)[C@H](NC(=O)OC(C)(C)C(C)(F)F)C(=O)N4C3)c2cc1F [Compound 5397, 3,3-difluoro-2-methylbutan-2-yl((2R,6S,7R,9R,13aS,14aR,16aS,Z)-2-((6-ethoxy-7-fluoroisoquinolin-1-yl)oxy)-7,9-dimethyl-14a-(((1-methylcyclopropyl)sulfonyl)carbamoyl)-5,16-dioxo-1,2,3,5,6,7,8,9,10,11,13a,14,14a,15,16,16a-hexadecahydrocyclopropa[e]pyrrolo[1,2-a][1,4]diazacyclopentadecin-6-yl)carbamate]
EC50 [1, 4]: 0.51 to 1 nM
EC50 [2, 6]: 1.01 to 5 nM

CC[C@@H]1C[C@H](C)CC/C=C\[C@@H]2C[C@@]2(C(=O)NS(=O)(=O)C2(C)CC2)NC(=O)[C@@H]2C[C@@H](Oc3cc(Cl)c4ccc(OC)cc4n3)CN2C(=O)[C@H]1NC(=O)OC(C)(C)C(F)(F)F [Compound 4298]
EC50 [1, 7]: 1.01 to 5 nM
EC50 [2, 8]: 1.01 to 5 nM

COc1ccc2c(O[C@@H]3C[C@H]4C(=O)N[C@]5(C(=O)NS(=O)(=O)C6(C)CC6)C[C@H]5/C=C\CC[C@@H](C)C[C@@H](C)[C@H](NC(=O)OC5(C(F)(F)F)COC5)C(=O)N4C3)nc(OC)cc2c1 [Compound 1141, 3-(trifluoromethyl)oxetan-3-yl ((2R,6S,7R,9R,13aS,14aR,16aS,Z)-2-((3,6-dimethoxyisoquinolin-1-yl)oxy)-7,9-dimethyl-14a-(((1-methylcyclopropyl)sulfonyl)carbamoyl)-5,16-dioxo-1,2,3,5,6,7,8,9,10,11,13a,14,14a,15,16,16a-hexadecahydrocyclopropa[e]pyrrolo[1,2-a][1,4]diazacyclopentadecin-6-yl)carbamate]
EC50 [1, 9]: < 5.46 nM
EC50 [2, 10]: < 5.46 nM

C[C@@H]1CC/C=C\[C@@H]2C[C@@]2(C(=O)NS(=O)(=O)C2CC2)NC(=O)[C@@H]2C[C@@H](Oc3nccc4c5c(ccc34)OCCO5)CN2C(=O)[C@@H](NC(=O)O[C@@H]2C[C@@H]3C[C@@H]3C2)[C@H](C)C1 [Compound 5264, (1R,3r,5S)-bicyclo[3.1.0]hexan-3-yl((2R,6S,7R,9R,13aS,14aR,16aS,Z)-14a-((cyclopropylsulfonyl)carbamoyl)-2-((2,3-dihydro-[1,4]dioxino[2,3-f]isoquinolin-7-yl)oxy)-7,9-dimethyl-5,16-dioxo-1,2,3,5,6,7,8,9,10,11,13a,14,14a,15,16,16a-hexadecahydrocyclopropa[e]pyrrolo[1,2-a][1,4]diazacyclopentadecin-6-yl)carbamate]
EC50 [1, 4]: < 5.46 nM
EC50 [2, 6]: < 5.46 nM

CC[C@@H]1C[C@H](C)CC/C=C\[C@@H]2C[C@@]2(C(=O)NS(=O)(=O)C2CC2)NC(=O)[C@@H]2C[C@@H](Oc3nccc4c(OC)cccc34)CN2C(=O)[C@H]1NC(=O)OC(C)(C)C [Compound 3026, tert-butyl ((2R,6S,7R,9R,13aS,14aR,16aS,Z)-14a-((cyclopropylsulfonyl)carbamoyl)-7-ethyl-2-((5-methoxyisoquinolin-1-yl)oxy)-9-methyl-5,16-dioxo-1,2,3,5,6,7,8,9,10,11,13a,14,14a,15,16,16a-hexadecahydrocyclopropa[e]pyrrolo[1,2-a][1,4]diazacyclopentadecin-6-yl)carbamate]
EC50 [1, 9]: < 5.46 nM
EC50 [2, 10]: < 5.46 nM

COc1ccc2c(O[C@@H]3C[C@H]4C(=O)N[C@]5(C(=O)NS(=O)(=O)C6CC6)C[C@H]5/C=C\CC[C@H](C)C[C@@H](C)[C@H](NC(=O)OC(C)(C)C)C(=O)N4C3)nc(-c3ccccc3)cc2c1 [Compound 5186, tert-butyl ((2R,6S,7R,9S,13aS,14aR,16aS,Z)-14a-((cyclopropylsulfonyl)carbamoyl)-2-((6-methoxy-3-phenylisoquinolin-1-yl)oxy)-7,9-dimethyl-5,16-dioxo-1,2,3,5,6,7,8,9,10,11,13a,14,14a,15,16,16a-hexadecahydrocyclopropa[e]pyrrolo[1,2-a][1,4]diazacyclopentadecin-6-yl)carbamate]
EC50 [1, 4]: < 5.46 nM
EC50 [2, 6]: < 5.46 nM

COc1cc2ccccc2c(O[C@@H]2C[C@H]3C(=O)N[C@]4(C(=O)NS(=O)(=O)C5(C)CC5)C[C@H]4/C=C\CC[C@@H](C)C[C@@H](C)[C@H](NC(=O)OC(C)(C)C)C(=O)N3C2)n1 [Compound 6009, tert-butyl ((2R,6S,7R,9R,13aS,14aR,16aS,Z)-2-((3-methoxyisoquinolin-1-yl)oxy)-7,9-dimethyl-14a-(((1-methylcyclopropyl)sulfonyl)carbamoyl)-5,16-dioxo-1,2,3,5,6,7,8,9,10,11,13a,14,14a,15,16,16a-hexadecahydrocyclopropa[e]pyrrolo[1,2-a][1,4]diazacyclopentadecin-6-yl)carbamate]
EC50 [1, 3]: 0.3 nM
EC50 [1, 4]: < 5.46 nM
EC50 [2, 5]: 1.12 nM
EC50 [2, 6]: < 5.46 nM

CC[C@@H]1C[C@H](C)CC/C=C\[C@@H]2C[C@@]2(C(=O)NS(=O)(=O)C2(C)CC2)NC(=O)[C@@H]2C[C@@H](Oc3nccc4c(OC)cccc34)CN2C(=O)[C@H]1NC(=O)NC(C)(C)C [Compound 3034, (2R,6S,7R,9R,13aS,14aR,16aS,Z)-6-(3-(tert-butyl)ureido)-7-ethyl-2-((5-methoxyisoquinolin-1-yl)oxy)-9-methyl-N-((1-methylcyclopropyl)sulfonyl)-5,16-dioxo-1,2,3,5,6,7,8,9,10,11,13a,14,14a,15,16,16a-hexadecahydrocyclopropa[e]pyrrolo[1,2-a][1,4]diazacyclopentadecine-14a-carboxamide]
EC50 [1, 9]: < 5.46 nM
EC50 [2, 10]: < 5.46 nM

COc1ccc2c(O[C@@H]3C[C@H]4C(=O)N[C@]5(C(=O)NS(=O)(=O)C6(C)CC6)C[C@H]5/C=C\CC[C@H](C)C[C@@H](C)[C@H](NC(=O)OC(C)(C)C)C(=O)N4C3)nc(N(C)C)nc2c1 [Compound 3001, tert-butyl ((2R,6S,7R,9S,13aS,14aR,16aS,Z)-2-((2-(dimethylamino)-7-methoxyquinazolin-4-yl)oxy)-7,9-dimethyl-14a-(((1-methylcyclopropyl)sulfonyl)carbamoyl)-5,16-dioxo-1,2,3,5,6,7,8,9,10,11,13a,14,14a,15,16,16a-hexadecahydrocyclopropa[e]pyrrolo[1,2-a][1,4]diazacyclopentadecin-6-yl)carbamate]
EC50 [1, 9]: < 5.46 nM
EC50 [2, 10]: < 5.46 nM

CC[C@@H]1C[C@H](C)CC/C=C\[C@@H]2C[C@@]2(C(=O)NS(=O)(=O)C2CC2)NC(=O)[C@@H]2C[C@@H](Oc3cc(OC)nc4cc(OC)c(F)cc34)CN2C(=O)[C@H]1NC(=O)OC(C)(C)C(F)(F)F [Compound 1201]
EC50 [1, 7]: 1.01 to 5 nM
EC50 [2, 8]: 1.01 to 5 nM
